≈ marks a conversion by molar mass, not a printed value.
system: Caco-2; test: Caco-2 cell permeability; conditions: No Inhibitor

Compound	Mean (B-A/A-B) Efflux Ratio	Mean Papp A-B	Mean Papp B-A
CC(C)Cc1ccc(C(C)C(=O)[O-])cc1.COC1=C(OC)C(=O)C(CCCCCCCCCC[P+](c2ccccc2)(c2ccccc2)c2ccccc2)=C(C)C1=O [Ibuprofen-MitoQ, Ibuprofen MitoQ conjugate]	0.467	52.1 10^−6 cm/s	24.3 10^−6 cm/s
CCC1C(O)C2C3CCC(C(C)CCC(=O)[O-])C3(C)CCC2C2(C)CCC(O)CC12.COC1=C(OC)C(=O)C(CCCCCCCCCC[P+](c2ccccc2)(c2ccccc2)c2ccccc2)=C(C)C1=O [Obeticholic acid-MitoQ]	0.0872	18.9 10^−6 cm/s	1.65 10^−6 cm/s
Obeticholic acid-TPMP	0.103	20.5 10^−6 cm/s	2.11 10^−6 cm/s

system: not listed separately; test: Caco-2 cell permeability; conditions: human, Caco-2

Compound	Papp A→B	Papp B→A	efflux ratio
O=C(O)Cc1ccccc1Nc1c(Cl)cccc1Cl [Diclofenac, reference compound]	34.5 ×10⁻⁶ cm/s	13.5 ×10⁻⁶ cm/s	–
CC(C)Cc1ccc(C(C)C(=O)O)cc1 (centres unmarked) [Ibuprofen, reference compound]	40.5 ×10⁻⁶ cm/s	19 ×10⁻⁶ cm/s	–
CC[C@H]1[C@@H](O)[C@@H]2[C@H](CC[C@]3(C)[C@@H]([C@H](C)CCC(=O)O)CC[C@@H]23)[C@@]2(C)CC[C@@H](O)C[C@@H]12 [Obeticholic acid, reference compound]	32.6 ×10⁻⁶ cm/s	3.23 ×10⁻⁶ cm/s	0.0989

system: not listed separately; test: Water solubility of PBICs; assay type: physicochemical; conditions: not given
Procedure: (§1) The water solubilties and partition coefficients of the PBICs were measured and compared to the values of the therapeutic agent by itself. To determine the partition coefficient Log D7.4 data provided in Table 2, a solution of the compound or conjugate was prepared in aqueous phosphate buffered saline (PBS) at a concentration of 100 micromolar (μM). The PBS solution was shaken with octanol. Thus, in Table 2, Log D7.4=Log (concentration in octanol/concentration in aqueous phosphate buffered saline (PBS))=Log[(initial concentration in PBS−final concentration in PBS)/final concentration in PBS], as the concentration in octanol is derived from the loss of compound from the aqueous PBS layer.

Compound	Water solubility, Drug
CC(C)Cc1ccc(C(C)C(=O)O)cc1 (centres unmarked) [Ibuprofen, reference compound]	21.0 mg/L

same assay, conditions: MitoQ conjugate of the drug

Compound	Water solubility, MitoQ Conjugate
CC(C)Cc1ccc(C(C)C(=O)[O-])cc1.COC1=C(OC)C(=O)C(CCCCCCCCCC[P+](c2ccccc2)(c2ccccc2)c2ccccc2)=C(C)C1=O [Ibuprofen-MitoQ, Ibuprofen MitoQ conjugate]	Insoluble

same assay, conditions: TPMP conjugate of the drug

Compound	Water solubility, TPMP Conjugate
(R)-3-Hydroxybutyric Acid-TPMP conjugate [R-3-Hydroxybutyric acid TPMP Conjugate]	2,867,500.0 mg/L
Baclofen-TPMP conjugate [Baclofen TPMP Conjugate]	13,500.0 mg/L
Captopril TPMP conjugate	3,036,666.7 mg/L
Deoxycholic acid TPMP conjugate	2,518,000.0 mg/L
Diflunisal-TPMP conjugate [Diflunisal TPMP Conjugate]	1,518,333.3 mg/L
Indomethacin-TPMP conjugate [Indomethacin TPMP Conjugate]	1,700,000.0 mg/L
L-Thyroxine TPMP conjugate [Levothyroxine TPMP Conjugate]	<400 mg/L
Latanoprost Acid-TPMP conjugate [Latanoprost TPMP Conjugate]	2,187,777.8 mg/L
Retinoic Acid-TPMP conjugate [Retinoic acid TPMP Conjugate]	2,624,000.0 mg/L
Travoprost Acid-TPMP conjugate [Travoprost TPMP Conjugate]	1,921,666.7 mg/L
Treprostinil TPMP conjugate	2,558,000.0 mg/L
racemic 3-Hydroxybutyric Acid-TPMP conjugate [3-hydroxybutyric acid TPMP Conjugate]	4,332,500.0 mg/L

same assay, conditions: parent drug by itself

Compound	Water solubility, Drug
C[C@H](CCC(=O)O)[C@H]1CC[C@H]2[C@@H]3CC[C@@H]4C[C@H](O)CC[C@]4(C)[C@H]3C[C@H](O)[C@]12C [Deoxycholic acid]	43.6 mg/L
CC1=C(/C=C/C(C)=C/C=C/C(C)=C/C(=O)O)C(C)(C)CCC1 [Retinoic acid]	1,000.0 mg/L

same assay, conditions: water; parent drug by itself

Compound	solubility
CC(O)CC(=O)O (racemic) [3-hydroxybutyric acid]	444000 µg/mL (≈ 4260 mM)
NCC(CC(=O)O)c1ccc(Cl)cc1 (centres unmarked) [Baclofen]	700 µg/mL (≈ 3.28 mM)
C[C@H](CS)C(=O)N1CCC[C@H]1C(=O)O [Captopril]	160000 µg/mL (≈ 736 mM)
O=C(O)c1cc(-c2ccc(F)cc2F)ccc1O [Diflunisal]	14.5 µg/mL (≈ 0.058 mM)
COc1ccc2c(c1)c(CC(=O)O)c(C)n2C(=O)c1ccc(Cl)cc1 [Indomethacin]	0.9 µg/mL (≈ 0.00252 mM)
CC(C)OC(=O)CCC/C=C\C[C@@H]1[C@@H](CC[C@@H](O)CCc2ccccc2)[C@H](O)C[C@@H]1O [Latanoprost]	8 µg/mL (≈ 0.0185 mM)
N[C@@H](Cc1cc(I)c(Oc2cc(I)c(O)c(I)c2)c(I)c1)C(=O)O [Levothyroxine]	0.2 µg/mL (≈ 0.000257 mM)
C[C@@H](O)CC(=O)O [R-3-Hydroxybutyric acid, (R)-3-hydroxybutyric acid]	444000 µg/mL (≈ 4260 mM)
O=C(O)c1cc(/N=N/c2ccc(S(=O)(=O)Nc3ccccn3)cc2)ccc1O [Sulfasalazine]	1 µg/mL (≈ 0.00251 mM)
CC(C)OC(=O)CCC/C=C\C[C@@H]1[C@@H](/C=C/[C@@H](O)COc2cccc(C(F)(F)F)c2)[C@H](O)C[C@@H]1O [Travoprost]	7 µg/mL (≈ 0.014 mM)
CCCCC[C@H](O)CC[C@@H]1[C@H]2Cc3cccc(OCC(=O)O)c3C[C@H]2C[C@H]1O [Treprostinil]	7 µg/mL (≈ 0.0179 mM)

system: not listed separately; test: Partition coefficient octanol/PBS (LogD7.4); assay type: physicochemical; conditions: 100 μM in PBS shaken with octanol
Procedure: as §1

Compound	(Conc. in octanol)/(Conc. in PBS)	LogD7.4
CC(C)Cc1ccc(C(C)C(=O)[O-])cc1.COC1=C(OC)C(=O)C(CCCCCCCCCC[P+](c2ccccc2)(c2ccccc2)c2ccccc2)=C(C)C1=O [Ibuprofen-MitoQ, Ibuprofen MitoQ conjugate]	9.94	1.00
CCC1C(O)C2C3CCC(C(C)CCC(=O)[O-])C3(C)CCC2C2(C)CCC(O)CC12.COC1=C(OC)C(=O)C(CCCCCCCCCC[P+](c2ccccc2)(c2ccccc2)c2ccccc2)=C(C)C1=O [Obeticholic acid-MitoQ]	624.00	2.80
Obeticholic acid-TPMP	1,182.39	3.07

system: not given; test: not given; conditions: parent drug; cited from earlier work

Compound	LogP (Reported)
CC[C@H]1[C@@H](O)[C@@H]2[C@H](CC[C@]3(C)[C@@H]([C@H](C)CCC(=O)O)CC[C@@H]23)[C@@]2(C)CC[C@@H](O)C[C@@H]12 [Obeticholic acid, reference compound]	3.5
